From patent publication US20070270350A1, “Methods and Compositions for the Prevention and Treatment of Inflammatory Diseases or Conditions” (MUSC FOUNDATION FOR RESEARCH DEVELOPMENT, priority 2003, published 2007)

Tests used:
Microglia = conditions: 10 μM lovastatin or 5 mM NaPA 8 h, LPS 1.0 μg/ml, 24 h
T cells = assay: Cytokine production by PLP139-151-primed DLN cells and naïve T cells; assay type: cell-based, mouse; conditions: lovastatin 10 and 20 μM, p<0.0001
Experimental: (A), (C), (E), (G), and (I) DNL cells were isolated on day 10 from PLP139-151 immunized SJL/J mice and cultured in vitro at 5×10^6 cells/ml in the presence of PLP139-151 (5 μg/ml) and lovastatin (10 and 20 μM). (B) (D), (F), (H), and (J) Naïve T cells (98% purified) isolated from lymph nodes were cultured in anti-CD3 and anti-CD28-precoated plates at 1×10^6 cells/ml with lovastatin (10 and 20 μM). The supernatants were collected at 48 h (for IFN-γ and TNF-α) and 120 h (for IL-4, IL-5, and IL-10) for cytokine measurements. […] The values are the means of triplicate determinations at each point, and the error bars represent +/−SD.

EAE in SJL/J mice = assay: Active and passive EAE in SJL/J mice treated with lovastatin; assay type: in vivo, mouse; conditions: i.p. t or 5 mg/kg lovastatin every day, days 0-60 or started on day 10, p<0.001
Rat Primary Astrrocytes = conditions: LPS 1.0 μg/ml, 24 h
KA-treated rats = assay: KA-induced seizure model (epilepsy model), rat hippocampus; assay type: in vivo; conditions: statin 10 mg/kg orally, 3 days after KA
Experimental: FIG. 45. Experimental design for the use of statins as a therapeutic for kinic acid induced seizures (epilepsy model).
FIG. 46. […] The rats were orally pre-treated (7 days before) with atorvastatin (LP; 10 mg/kg) prior to KA (10 mg/kg, i.p.). At 3 days after KA injection, neuronal cell death in hippocampus was examined using cresyl violet stain.
FIG. 47. […] The rats were orally pre-treated (7 days before) with atorvastatin (LP; 10 mg/kg) prior to KA (10 mg/kg, i.p.). At 3 days after KA injection, infiltration of macrophages in the CA1 and CA3 regions of the hippocampus was examined using immunofluorescent labeling against for ED-1, as a marker of monocytes.
The rats were orally pre-treated (7 days before) with atorvastatin (LP; 10 mg/kg) prior to KA (10 mg/kg, i.p.). At 3 days after KA injection, neuronal cell death in the CA1 (A) and CA3 (B) regions of the hippocampus was examined using TUNNEL assay.
FIG. 49. […] The rats were orally pre-treated (7 days before) with lovastatin (Lov; 10 mg/kg) prior to KA (10 mg/kg, i.p.). At 3 days after KA injection, neuronal cell death in hippocampus was examined using cresyl violet stain.
(§1) FIG. 50A-C. […] The rats were orally pre-treated (7 days before) with atorvastatin (LP; 10 mg/kg) prior to KA (10 mg/kg, i.p.). At 3 days after KA injection, the expression of inflammatory genes (TNF-α, IL-1β, and iNOS) in hippocampus using real time PCR. The expression of each gene was normalized with GAPDH expression.
as §1, with “51A-C.” for “50A-C.”, “lovastatin (Lov;” for “atorvastatin (LP;”
Seizure index: stage 1, facial clonus; stage 2, nodding; stage 3, forelimb clonus; stage 4, forelimb clonus with rearing; stage 5, rearing, jumping, and falling. The rats were orally pre-treated (7 days before) with lovastatin or atorvastatin (Lov or LP; 10 mg/kg) prior to KA (10 mg/kg, i.p.).

Macrophages = conditions: 10 μM lovastatin or 5 mM NaPA 8 h, LPS 1.0 μg/ml, 24 h
NF-κβ = assay: Nuclear translocation of NF-κβ in anti-CD3/CD28 stimulated naïve T cells; assay type: cell-based, mouse; conditions: lovastatin 2 h pretreatment, dose-dependent (5-50 μM); anti-CD3 and CD28 4 h
[1] = 48 h, PLP-primed and naïve T cells

CC[C@H](C)C(=O)O[C@H]1C[C@@H](C)C=C2C=C[C@H](C)[C@H](CC[C@@H]3C[C@@H](O)CC(=O)O3)[C@H]21 [Lovastatin, lovastatin]
TNF-α (Microglia; LPS only 14.5 +/− 2.1): 0.9 +/− 0.1 ng/24 h/mg protein
Il-1β (Microglia; LPS only 28.2 +/− 3.4): 2.1 +/− 0.3 ng/24 h/mg protein
NO (Microglia; LPS only 81.2 +/− 6.9): 5.9 +/− 0.4 n mol/24 h/mg protein
IL-6 (Microglia; LPS only 295.6 +/− 33.5): 7.8 +/− 1.1 ng/24 h/mg protein
IFN-γ in supernatants (T cells; [1]): significantly reduced
TNF-α in supernatants (T cells; [1]): significantly reduced
IL-4 in supernatants (T cells; 120 h): significantly increased
IL-5 in supernatants (T cells; 120 h): significantly increased
IL-10 in supernatants (T cells; 120 h): significantly increased
severity of EAE disease (mean clinical scores) (EAE in SJL/J mice): significantly less
TNF-α (Rat Primary Astrrocytes; 10 μM lovastatin or 5 mM NaPA 8 h, LPS only 5.3 +/− 0.8): 0.3 +/− 0.05 ng/24 h/mg protein
Il-1β (Rat Primary Astrrocytes; 10 μM lovastatin or 5 mM NaPA 8 h, LPS only 10.4 +/− 1.5): 0.8 +/− 0.1 ng/24 h/mg protein
IL-6 (Rat Primary Astrrocytes; 10 μM lovastatin or 5 mM NaPA 8 h, LPS only 136.5 +/− 16.8): 0.8 +/− 0.1 ng/24 h/mg protein
NO (Rat Primary Astrrocytes; 10 μM lovastatin or 5 mM NaPA 8 h serum free, LPS only 25.3 +/− 3.2): 5.2 +/− 0.4 n mol/24 h/mg protein
KA-induced neuronal cell death in hippocampus (cresyl violet stain) (KA-treated rats; 7 days before KA 10 mg/kg i.p.): inhibited
expression of inflammatory genes (TNF-α, IL-1β, and iNOS) induced by KA in hippocampus (real time PCR) (KA-treated rats; 7 days before KA): inhibited
TNF-α (Macrophages; LPS only 18.6 +/− 2.3): 1.2 +/− 0.1 ng/24 h/mg protein
Il-1β (Macrophages; LPS only 34.6 +/− 4.5): 2.3 +/− 0.3 ng/24 h/mg protein
NO (Macrophages; LPS only 118.5 +/− 12.5): 7.2 +/− 0.9 n mol/24 h/mg protein
IL-6 (Macrophages; LPS only 350.0 +/− 27.6): 8.3 +/− 0.6 ng/24 h/mg protein
nuclear translocation of NF-κβ (NF-κβ): inhibits
